Laboratory results as given in patent publication US9802917B2, “Particles of N-(5-cyano-4-((2-methoxyethyl)amino)pyridin-2-yl)-7-formyl-6-((4-methyl-2-oxopiperazin-1-yl)methyl)-3,4-dihydro-1,8-naphthyridine-1(2H)-carboxamide” (Novartis AG, priority 2015, dated 2017).
Where a name gives a salt, the structure may show the parent alone.

How the values were obtained:
[1] = tested on: HuH-7 hepatocellular carcinoma cells; test: Methylene blue staining proliferation assay (MBS); type: cell-based; conditions: Homo sapiens, HuH-7 cells, 72 hours, read-out: HUH7 proliferation (nM) MBS
Description: Using a liquid handling device (Velocity 11 Bravo, Agilent), serial 3-fold dilutions of compounds were prepared in DMSO, prediluted in growth medium, followed by transfer of 10 uL/well to the cell plates. […] For data analysis, the assay background was determined in wells containing medium and lysis buffer, but no cells, and the corresponding value subtracted from all data points. […] Compound concentrations leading to half-maximal signal inhibition ([…]) were determined by standard four parametric curve fitting (XLfit 5.4, IDBS). […] Optical density was measured at A650 nm. […]

[2] = tested on: HuH-7 hepatocellular carcinoma cells; test: CellTiter Glo (CTG) proliferation/viability assay; type: cell-based; conditions: Homo sapiens, 72 h, HuH-7 cells, 3 days, GI50, read-out: HUH7 proliferation (nM) CTG
Description: CellTiter Glo (CTG) Assay: […] Compound-mediated suppression of cell proliferation/viability is assessed by quantification of cellular ATP levels using the CellTiter-Glo (CTG) reagent (Promega, Cat# G7573). Briefly, cells are seeded at 3'000 cells/well/80 μl fresh medium into tissue-culture-treated 96-well plates (Costar Cat#3904), followed by addition of 20 μl medium containing compound dilutions at 5-fold their final intended concentration. Dose-response effects are assessed by 3-fold serial dilutions of the test compound, starting at 10 μM. Following incubation of the cells for 3 days at 37° C. and 5% CO2, the effect of inhibitors on cell viability is quantified following addition of 50 μl CTG and luminescence measurement (integration time: 500 ms) as per vendor manual, using a correspondingly equipped multi-mode plate reader ([…], TECAN, Switzerland). For data analysis, the assay background value determined in wells containing medium, but no cells, is subtracted from all data points. To enable differentiation of cytotoxic from cytostatic compounds, the number of viable cells is assessed relative to that observed at the time of compound addition using a separate cell plate (day 0). […] Compound concentrations leading to half-maximal growth inhibition (GI50) are determined using standard four parameter curve fitting (XLfit 5.2, IDBS, UK).

[3] = Basic flow energy measurement (FT4 powder rheometer); type: physicochemical; conditions: 25 mm vessel, 23.5 mm blade
Description: Basic flow energy (BFE) is the energy required to establish a particular flow pattern in a conditioned, precise volume of powder. This flow pattern is a downward anti-clockwise motion of the blade, generating a compressive, relatively high stress flow mode in the powder. The BFE is calculated from the work done in moving the blade through the powder from the top of the vessel to the bottom, i.e. during the downward traverse.
In the present instance, the basic flow energy was measured using a FT4 powder rheometer from Freeman Technology under the following conditions: vessel size: 25 mm; standard Program Name: 25 mm_1C_Split_1 T; Starting accessory: 23.5 mm blade; Vessel: 25 mm×25 mL Split Vessel. The results were plotted in FIG. 9.

[4] = Laser diffraction particle size measurement of particles of reference example 1 (Example 4); type: physicochemical; conditions: laser light diffraction, after 240 seconds sonication, FIG. 7
Source text: For the measurement, a Sympatec HELOS device with a focal length of 100 mm from Sympatec GmbH, Germany, equipped with a wet dispersion device Cuvette from Sympatec GmbH, Germany was used. The test substance was dispersed in white spirit, Brenntag Schweizerhall AG, Switzerland (catalog number 12200-150) using a dispersing aid (e.g. Statsafe™ 6000, INNOSPEC Limited, ca. 1% in the white spirit).
The particles were mixed intensively, e.g. on a vortex mixer, in order to wet the substance thoroughly and to form a smooth and homogeneous paste. The paste was diluted with the white spirit to a final volume of several milliliters and the stock dispersion was mixed again.
The test dispersion was prepared by diluting of the stock dispersion with white spirit for an appropriate optical concentration and the cumulative volume distribution was determined using a laser light diffraction instrument in accordance with the instruction manual. Measurements were made before sonication and after sonication for up to 600 seconds. The parameters were set as follows: 50% amplitude at the ultrasonication device USGD-100 from Telsonic AG, and a measuring duration of about 20 seconds. The measurement was carried out twice.
The particle sizes at the undersize values of 10%, 50% and 90% (x10, x50, x90) were evaluated from the cumulative volume distribution after 240 seconds sonication. This was determined to be representative of the primary particle sizes.

[5] = Compressibility measurement (FT-4 powder rheometer); type: physicochemical; conditions: measured at 15 kPa normal stress
Source text: Compressibility is a measure of how density changes as a function of applied normal stress. By definition, compressibility is the percent change in volume after compression (%). The measurements were made using a FT-4 powder rheometer from Freeman technology. N-(5-cyano-4-((2-methoxyethyl)amino)pyridin-2-yl)-7-formyl-6-((4-methyl-2-oxopiperazin-1-yl)methyl)-3,4-dihydro-1,8-naphthyridine-1(2H)-carboxamide particles obtained by the process of the present invention and particles obtained by the process described in PCT/IB2014/065585 were placed in a vessel and a vented piston was used to compress the particles. The vented piston is designed such that the compression face is constructed from a woven stainless steel mesh and allows the entrained air in the powder to escape uniformly across the surface of the powder bed. A normal stress was applied in 8 sequential compression steps beginning at 0.5 kPa and ending at 15 kPa. In each step, the normal stress was held constant for 60 seconds and the compressibility was automatically calculated as a percentage change in volume. The results were plotted in FIG. 10. The compressibility percentage measured at 15 kPa was 54.14% and 54.63% for particles of the present invention. For the particles obtained by the process described in PCT/IB2014/065585, the compressibility percentage measured at 15 kPa was 49.93%.

[6] = Wall friction angle measurement (FT-4 powder rheometer, stainless steel); type: physicochemical; conditions: 316 Stainless Steel discs, 1.2 microns average roughness
Source text: The wall friction test method has been developed to assess the interaction between the drug substance and stainless steel. The apparatus used is a FT-4 powder rheometer from Freeman technology.
N-(5-cyano-4-((2-methoxyethyl)amino)pyridin-2-yl)-7-formyl-6-((4-methyl-2-oxopiperazin-1-yl)methyl)-3,4-dihydro-1,8-naphthyridine-1(2H)-carboxamide particles obtained by the process of the present invention and particles obtained by the process described in PCT/IB2014/065585 were placed in a vessel containing the sample and a wall friction head to induce both vertical and rotational stresses. The powder sample is prepared by conditioning and then pre-consolidation using the standard FT4 blade and vented piston.
The wall friction head equipped with 1.2 microns average roughness of 316 Stainless Steel discs moves downwards to the surface of the sample and induces a normal stress as the disc contacts the top of the sample. The head continues to move downwards until the required normal stress is established. […] The torque required to maintain this rotational is measured which enables a “steady-state” shear stress to be calculated. […] A series of shear stress values is measured for a range of target applied stresses. […] The wall friction angle is then calculated by drawing a best fit line through the data points on the graph, and measuring the angle subtended between this best fit line and the horizontal. […]

Structure (SMILES)	IC50 [1] [nM]	IC50 [2] [nM]	basic flow energy [3] [mJ]	median particle size (x50 or d50) [4]	particle size x10 or d10 [4]	particle size x90 or d90 [4]	basic flow energy ([3]; listed as particles obtained by the process described in PCT/IB2014/065585) [mJ]	compressibility percentage [5] [%]	wall friction angle [6] [°]
COCCNc1cc(NC(=O)N2CCCc3cc(CN4CCN(C)CC4=O)c(C=O)nc32)ncc1C#N [Example 1, N-(5-cyano-4-((2-methoxyethyl)amino)pyridin-2-yl)-7-formyl-6-((4-methyl-2-oxopiperazin-1-yl)methyl)-3,4-dihydro-1,8-naphthyridine-1(2H)-carboxamide in citric acid salt form 1:1]	12	60.9	65.07						
COCCNc1cc(NC(=O)N2CCCc3cc(CN4CCN(C)CC4=O)c(C=O)nc32)ncc1C#N.O=C(O)CC(O)(CC(=O)O)C(=O)O [Example 1a, N-(5-cyano-4-((2-methoxyethyl)amino)pyridin-2-yl)-7-formyl-6-((4-methyl-2-oxopiperazin-1-yl)methyl)-3,4-dihydro-1,8-naphthyridine-1(2H)-carboxamide in citric acid form (1:1)]			39.17						
COCCNc1cc(NC(=O)N2CCCc3cc(CN4CCN(C)CC4=O)c(C=O)nc32)ncc1C#N.O=C(O)CC(O)(CC(=O)O)C(=O)O [Reference Example 1, N-(5-cyano-4-((2-methoxyethyl)amino)pyridin-2-yl)-7-formyl-6-((4-methyl-2-oxopiperazin-1-yl)methyl)-3,4-dihydro-1,8-naphthyridine-1(2H)-carboxamide in citric acid form (1:1)]				about 3 microns	about 1 micron	about 7 micron	185.20	49.93	43.18
